The results in this text go back to patent US12577267B2, “Pyrimidine compounds for use as MAP4K1 inhibitors” (GLENMARK SPECIALITY S.A., priority 2021, dated 2026).

pIC50: −log10 of the molar value. Counter-ions that a name gives are not always drawn. Like-named read-outs stand apart in the source and are kept apart here. Where only a bound is given, the exact number is not on record here.

Usually inhibition stands for how much of the control response was suppressed. Low readings indicate little suppression, high ones strong suppression. As usually defined, the IC50 is the midpoint of a concentration-inhibition curve. A higher IC50 goes with weaker potency in that assay. What is called pIC50 is the negative decadic logarithm of the IC50, by convention in mol/L. In general, % Inhibition refers to the change of the read-out against control, counted positive when it falls. A lower % Inhibition goes with a weak effect.

In this experiment the target is MAP4K-1 enzyme (Homo sapiens, UniProt Q92918). Description: FRET one step binding assay (tracer displacement). Conditions: for inhibition at 1 µM / % Inhibition at 1 μM: 1 μM compound; for inhibition at 10 µM / % Inhibition at 10 μM: 10 μM compound; for IC50: IC50 (nM). Put shortly: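 TR-FRET tracer-displacement binding with 5 nM GST-tagged MAP4K-1 and 2 nM Eu-anti-GST antibody in 50 mM HEPES pH 7.5, 10 mM MgCl2, 1 mM EGTA, 0.01% Brij-35, 3% DMSO final. Compound pre-incubated 15 min on ice, then 1 h at room temperature after tracer addition. IC50 from nonlinear regression of percent-of-control dose-response.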
Chain of MAP4K-1 enzyme (Q92918 whole entry): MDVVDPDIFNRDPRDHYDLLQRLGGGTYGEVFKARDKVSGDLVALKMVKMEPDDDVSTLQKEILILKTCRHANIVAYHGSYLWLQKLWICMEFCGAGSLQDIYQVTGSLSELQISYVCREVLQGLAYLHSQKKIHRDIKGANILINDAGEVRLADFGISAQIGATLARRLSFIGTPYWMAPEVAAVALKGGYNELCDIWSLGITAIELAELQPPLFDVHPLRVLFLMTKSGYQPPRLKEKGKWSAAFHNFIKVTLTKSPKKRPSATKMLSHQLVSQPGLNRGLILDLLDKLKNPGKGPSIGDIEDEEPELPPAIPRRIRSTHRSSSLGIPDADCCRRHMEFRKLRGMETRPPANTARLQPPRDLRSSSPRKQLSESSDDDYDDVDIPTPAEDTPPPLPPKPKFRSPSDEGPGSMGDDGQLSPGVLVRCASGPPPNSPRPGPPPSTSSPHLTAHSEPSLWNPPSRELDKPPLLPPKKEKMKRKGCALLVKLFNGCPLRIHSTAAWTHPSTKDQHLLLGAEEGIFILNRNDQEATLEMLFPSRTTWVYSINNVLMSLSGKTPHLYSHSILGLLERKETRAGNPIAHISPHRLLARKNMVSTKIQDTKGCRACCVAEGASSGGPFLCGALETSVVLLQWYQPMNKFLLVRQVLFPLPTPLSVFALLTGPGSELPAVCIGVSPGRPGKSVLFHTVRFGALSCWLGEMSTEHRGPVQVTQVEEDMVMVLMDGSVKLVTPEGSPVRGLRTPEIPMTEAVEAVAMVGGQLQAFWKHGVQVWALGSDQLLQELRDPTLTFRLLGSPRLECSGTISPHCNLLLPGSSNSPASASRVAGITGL

`COc1cc2c(cc1Nc1ncc(Cl)c(Nc3ccc(OS(=O)(=O)F)cc3P(C)(C)=O)n1)CN(C)C(C)C2` (single isomer, unassigned; isomer 1) [Example 33, 4-((5-Chloro-2-((6-methoxy-2,3-dimethyl-1,2,3,4-tetrahydroisoquinolin-7-yl)amino)pyrimidin-4-yl)amino)-3-(dimethylphosphoryl)phenyl sulfofluoridate dihydrochloride (Isomer 1)]: the inhibition at 1 µM was 92.8%, the inhibition at 10 µM was determined as 87.8% and the 50% inhibitory concentration (IC50) is under 50 nM.

The compound `COc1cc2c(cc1Nc1ncc(Cl)c(Nc3ccc(O)cc3P(C)(C)=O)n1)CN(C)CC2` [Example 1, (2-((5-Chloro-2-((6-methoxy-2-methyl-1,2,3,4-tetrahydroisoquinolin-7-yl)amino)pyrimidin-4-yl)amino)-5-hydroxyphenyl)dimethylphosphineoxide dihydrochloride] returned an inhibition at 1 µM of 87.2% and an inhibition at 10 µM of 86.5%. Besides, the negative logarithm of the IC50 (pIC50) (read-out: IC50) was over 7.30.

Consider `COc1cc2c(cc1Nc1ncc(Cl)c(Oc3ccc(OS(=O)(=O)F)cc3P(C)(C)=O)n1)CN(C)CC2` [Example 60, 4-((5-Chloro-2-((6-methoxy-2-methyl-1,2,3,4-tetrahydroisoquinolin-7-yl)amino)pyrimidin-4-yl)oxy)-3-(dimethylphosphoryl)phenylsulfofluoridate dihydrochloride], for which the inhibition at 1 µM came to 70.5%, the inhibition at 10 µM came to 83.4% and the half-inhibitory concentration (IC50) was 100 to 500 nM.

`COc1cc2c(cc1Nc1ncc(Cl)c(Nc3ccc(OS(=O)(=O)F)cc3P(C)(C)=O)n1)CN(C)C(C)C2` (single isomer, unassigned; isomer 2) [Example 34, 4-((5-Chloro-2-((6-methoxy-2,3-dimethyl-1,2,3,4-tetrahydroisoquinolin-7-yl)amino)pyrimidin-4-yl)amino)-3-(dimethylphosphoryl)phenyl sulfofluoridate dihydrochloride (Isomer 2)] showed a negative-log IC50 (pIC50) of over 7.30. The “% Inhibition at 1 μM” value (1 µM) is on record as 84.26%. The “% Inhibition at 10 μM” value (10 µM) stood at 86.64%.

Regarding `COc1cc2c(cc1Nc1ncc(Cl)c(Nc3cc(OS(=O)(=O)F)ccc3P(C)(C)=O)n1)CN(C)C(C)C2` (single isomer, unassigned; isomer 1) [Example 35, 3-((5-Chloro-2-((6-methoxy-2,3-dimethyl-1,2,3,4-tetrahydroisoquinolin-7-yl)amino)pyrimidin-4-yl)amino)-4-(dimethylphosphoryl)phenyl sulfofluoridate dihydrochloride (Isomer 1)], the inhibition at 1 µM is 83%, the inhibition at 10 µM was determined as 79.1% and the half-maximal inhibitory concentration (IC50) is under 50 nM.

With `COc1cc2c(cc1Nc1ncc(Cl)c(Nc3cccc(OS(=O)(=O)F)c3P(C)(C)=O)n1)CN(C)CC2` [Example 19, 3-((5-Chloro-2-((6-methoxy-2-methyl-1,2,3,4-tetrahydroisoquinolin-7-yl)amino)pyrimidin-4-yl)amino)-2-(dimethylphosphoryl) phenylsulfofluoridate dihydrochloride], the inhibition at 1 µM was 76.6%, the inhibition at 10 µM worked out at 78.2% and the IC50 is under 50 nM.

Turning to `COc1cc2c(cc1Nc1ncc(Cl)c(Nc3ccc(OS(=O)(=O)F)cc3P(C)(C)=O)n1)CN(CC(F)(F)F)CC2.Cl.Cl` [Example 7, 4-((5-Chloro-2-((6-methoxy-2-(2,2,2-trifluoroethyl)-1,2,3,4-tetrahydroisoquinolin-7-yl)amino)pyrimidin-4-yl)amino)-3-(dimethyllphosphoryl)phenyl sulfurofluoridate dihydrochloride], the “% Inhibition at 1 μM” value was 37.71% and the “% Inhibition at 10 μM” value is 69.74%.
